Consider 1 compound from US8889724B2, “Tetrazole compounds for reducing uric acid” (Wellstat Therapeutics Corporation, priority 2008, dated 2014).

“And” between values parts separate entries of the source, which are not always exact repeats. Identical values can stand only once.

The nature of this data set: Rat pilot single-dose oral pharmacokinetic study with Compound EB. It is filed as in vivo. To be noted: 100 mg/kg single oral gavage; for Compound EB concentration in plasma, individual rats: male Sprague-Dawley rat. The protocol:
Rat Pilot Single-Dose Oral Pharmacokinetic Study with Compound EB
Determination of the plasma profile of Compound EB following single oral gavage administration to male rats.
Test compound was suspended in 1% HPMC using a tissue homogenizer to minimize particles and maximize uniformity of the suspension and stored at 4° C. The formulations was thoroughly mixed just prior to administration. A dose of 100 mg/kg of test compounds or vehicle (1% HPMC) was administered to male Sprague-Dawley rats by single oral gavage. […] The blood samples were centrifuged within 30 minutes of collection under refrigeration (2-8° C.) for 7 minutes at 6000 rpm. Following centrifugation, the plasma were harvested into a single tube for each animal at each time point and immediately frozen at −80° C. until analyzed using LC/MS-MS. Serial plasma concentration time data was subjected to pharmacokinetic analyses using WinNonlin Standard (v2.1, Pharsight Corporation) and Microsoft EXCEL.
1. Rats received single oral gavage of Compound EB, 100 mg/kg, and plasma was collected at certain times.
2. Plasma was stored at −80° C. until the day of analysis.
3. Samples were thawed on 37° C. bath for 5 min and vortexed at top speed for 10 sec.
4. Rat plasma, 0.1 mL was mixed with 0.2 mL Acetonitrile, vortexed 1 min, spun down 14000 rpm, 17000 g, at 4° C., for 25 min.
5. Supernatants were filtered through 0.45 micron, 4 mm, PTFE membrane syringe filter (Phenomenex # AF0-3102-52), and 13 microL were injected and resolved on Luna 3 micron, 100 A pore, C8(2), 150×3 mm, reverse phase column (Phenomenex#00F-4248-YO, SN#259151-7) in 50 min linear gradient from 40% to 69% of (0.1% Formic Acid, 89.9% Acetonitrile, 10% Methanol) at 0.25 mL/min, 100 bar, 37° C. column temperature, method 406975M1, AGILENT sequence 1015-08A, Agilent 1100 LC-MS.
All samples were run in duplicate, 210 nm and 230 nm Absorbances, Negative and Positive ionization spectrograms were recorded.
Step 1. Plasma from “Vehicle” animals (pooled), 0.19 mL, was mixed with 0.01 mL 20× stock of PN2107 in Methanol to make 500 microM, 250 microM, 125 microM, . . . , concentrations of Compound EB in plasma.
For example: 190 microL plasma+10 microL of 10 mM Compound EB in methanol=0.2 mL plasma with 500 microM Compound EB.
Step 2. Samples from step 1 were vortexed for 10 sec at top speed.
Step 3. 0.4 mL of acetonitrile was added to all samples from Step 2, and all vials were vortexed at top speed for 1 min.
Step 4. All samples from step 3 were spun down 14000 rpm, 17000 g, at 4° C., for 25 min.
Step 5. Supernatants were filtered through 0.45 micron, 4 mm, PTFE membrane syringe filter (Phenomenex # AF0-3102-52), 13 microL were injected and resolved on Luna 3 micron, 100 A pore, C8(2), 150×3 mm, reverse phase column (Phenomenex#00F-4248-YO, SN#259151-7) in 50 min linear gradient from 40% to 69% of (0.1% Formic Acid, 89.9% Acetonitrile, 10% Methanol) at 0.25 ml/min, 100 bar, 37° C. column temperature.

Usually Cmax stands for the peak of the concentration-time curve. Regarding `Cc1cccc(C)c1COc1cccc(-c2nnn[nH]2)c1` [Compound EB, 5-(3-(2,6-Dimethylbenzyloxy)phenyl)-1H-tetrazole], the “Detection in rat plasma (in words)” value (LC-MS) was “readily detected”. Moreover, under “Sprague-Dawley, rat, male rats, plasma”, the Cmax stood at 108 µg/mL. For the same compound, where the note is “Sprague-Dawley, rat, male rats, plasma, read-out: AUC 0-24”, the AUC(0-t) turned out to be 566 µg·h/mL. Further, the half-life (Sprague-Dawley, rat, male rats, plasma, read-out: T ½) is 3.99 h. Besides, the “Compound EB concentration in plasma, individual rats” value (from here on “Compound EB concentration in plasma”) reads like this: (1 HR) 386 µM and 103 µM; (2 HR) 75 µM and 206 µM; (4 HR) 24 µM and 112 µM; (6 HR) 26 µM and 92 µM; (8 HR) 72 µM and 202 µM; (24 HR) 0 µM and 17 µM. The “Compound EB concentration in plasma” value (15 min) is 184 µM and 159 µM; the “Compound EB concentration in plasma” value (30 min) was 37 µM and 125 µM. For the same compound, the concentration at 0 h (male, Sprague-Dawley, rat plasma, time 0, read-out: Compound EB concentrations, averages) is 0 nM and 0 ng/mL. Where the note is “male, Sprague-Dawley, rat plasma, time 0.25, read-out: Compound EB concentrations, averages”, the concentration at 0.25 h is 172 µM and 48000 ng/mL. Besides, the concentration at 0.5 h (male, Sprague-Dawley, rat plasma, time 0.5, read-out: Compound EB concentrations, averages) was 81 µM and 22700 ng/mL. The concentration at 1 h (male, Sprague-Dawley, rat plasma, time 1, read-out: Compound EB concentrations, averages) is 244 µM and 68500 ng/mL. Besides, the concentration at 2 h (male, Sprague-Dawley, rat plasma, time 2, read-out: Compound EB concentrations, averages) was 140 µM and 39300 ng/mL. Further, the concentration at 4 h (male, Sprague-Dawley, rat plasma, time 4, read-out: Compound EB concentrations, averages) was 68 µM and 19000 ng/mL. Also, the concentration at 6 h (male, Sprague-Dawley, rat plasma, time 6, read-out: Compound EB concentrations, averages) is 59 µM and 16500 ng/mL. In addition, the concentration at 8 h (male, Sprague-Dawley, rat plasma, time 8, read-out: Compound EB concentrations, averages) is 137 µM and 38400 ng/mL. Under “male, Sprague-Dawley, rat plasma, time 24, read-out: Compound EB concentrations, averages”, the concentration at 24 h was 8.5 µM and 2380 ng/mL.
